Tested on: plants
Experiment: Test D pre-emergence, other plants of Tables D1 and D3
Assay type: in vivo
Settings: pre-emergence, 100=total damage, 0=no damage
Procedure: A formulation containing 50 g/L of the test chemical was prepared by dissolving the active ingredient in a mixture of organic solvents and emulsifier, details of which are provided in the table. This formulation was then mixed with a small, variable amount of acetone to aid dissolution, before addition of a 0.2% v/v aqueous solution of an adjuvant, as the aqueous diluent, to form an aqueous spray solution which contains a predetermined concentration of the active ingredient.
This aqueous spray solution was then sprayed onto plants including maize and wheat that had been seed treated with a herbicide safener, after one day's cultivation (for pre-emergence) or after about 12 days' cultivation (for post-emergence). The plants were grown from seeds sown in standard soil, placed in a glasshouse under controlled conditions (at 24/18° C. or 20/16° C., day/night; 16 h light; 65% humidity). After spray application the plants were then grown in a glasshouse under the same conditions and watered twice daily. After 15 d for post-emergence and 20 DAA for pre-emergence the test was evaluated (100=total damage to plant; 0=no damage to plant).

CN1CC(c2cc(C(F)(F)F)n(C)n2)C(C(=O)Nc2cccc(F)c2F)C1=O (racemic) [Compound 3]
60: damage to plant, POAAN (rate 500, 20 DAA) | damage to plant, VERPE (rate 500, 20 DAA)
0: damage to plant, ALOMY (rate 15, 20 DAA) | damage to plant, AVEFA (rate 15, 20 DAA) | damage to plant, BEAVA (rate 15, 20 DAA) | damage to plant, BROTE (rate 15, 20 DAA) | damage to plant, BRSNN (rate 15, 20 DAA) | damage to plant, CHEAL (rate 15, 20 DAA) | damage to plant, GALAP (rate 15, 20 DAA) | damage to plant, HORVW (rate 15, 20 DAA) | damage to plant, KCHSC (rate 15, 20 DAA) | damage to plant, LOLPE (rate 15, 20 DAA) | damage to plant, POAAN (rate 15, 20 DAA) | damage to plant, POLCO (rate 15, 20 DAA) | damage to plant, SINAR (rate 15, 20 DAA) | damage to plant, STEME (rate 15, 20 DAA) | damage to plant, VERPE (rate 15, 20 DAA) | damage to plant, ALOMY (rate 30, 20 DAA) | damage to plant, AVEFA (rate 30, 20 DAA) | damage to plant, BEAVA (rate 30, 20 DAA) | damage to plant, BROTE (rate 30, 20 DAA) | damage to plant, BRSNN (rate 30, 20 DAA) | damage to plant, CHEAL (rate 30, 20 DAA) | damage to plant, GALAP (rate 30, 20 DAA) | damage to plant, HORVW (rate 30, 20 DAA) | damage to plant, KCHSC (rate 30, 20 DAA) | damage to plant, LOLPE (rate 30, 20 DAA) | damage to plant, POLCO (rate 30, 20 DAA) | damage to plant, SINAR (rate 30, 20 DAA) | damage to plant, STEME (rate 30, 20 DAA) | damage to plant, VERPE (rate 30, 20 DAA) | damage to plant, ALOMY (rate 60, 20 DAA) | damage to plant, AVEFA (rate 60, 20 DAA) | damage to plant, BEAVA (rate 60, 20 DAA) | damage to plant, BROTE (rate 60, 20 DAA) | damage to plant, BRSNN (rate 60, 20 DAA) | damage to plant, CHEAL (rate 60, 20 DAA) | damage to plant, GALAP (rate 60, 20 DAA) | damage to plant, HORVW (rate 60, 20 DAA) | damage to plant, KCHSC (rate 60, 20 DAA) | damage to plant, LOLPE (rate 60, 20 DAA) | damage to plant, POLCO (rate 60, 20 DAA) | damage to plant, SINAR (rate 60, 20 DAA) | damage to plant, STEME (rate 60, 20 DAA) | damage to plant, VERPE (rate 60, 20 DAA) | damage to plant, ALOMY (rate 130, 20 DAA) | damage to plant, AVEFA (rate 130, 20 DAA) | damage to plant, BEAVA (rate 130, 20 DAA) | damage to plant, BROTE (rate 130, 20 DAA) | damage to plant, BRSNN (rate 130, 20 DAA) | damage to plant, CHEAL (rate 130, 20 DAA) | damage to plant, GALAP (rate 130, 20 DAA) | damage to plant, HORVW (rate 130, 20 DAA) | damage to plant, KCHSC (rate 130, 20 DAA) | damage to plant, LOLPE (rate 130, 20 DAA) | damage to plant, POLCO (rate 130, 20 DAA) | damage to plant, SINAR (rate 130, 20 DAA) | damage to plant, STEME (rate 130, 20 DAA) | damage to plant, VERPE (rate 130, 20 DAA) | damage to plant, ALOMY (rate 250, 20 DAA) | damage to plant, AVEFA (rate 250, 20 DAA) | damage to plant, BEAVA (rate 250, 20 DAA) | damage to plant, BROTE (rate 250, 20 DAA) | damage to plant, BRSNN (rate 250, 20 DAA) | damage to plant, CHEAL (rate 250, 20 DAA) | damage to plant, GALAP (rate 250, 20 DAA) | damage to plant, HORVW (rate 250, 20 DAA) | damage to plant, KCHSC (rate 250, 20 DAA) | damage to plant, LOLPE (rate 250, 20 DAA) | damage to plant, POLCO (rate 250, 20 DAA) | damage to plant, SINAR (rate 250, 20 DAA) | damage to plant, STEME (rate 250, 20 DAA) | damage to plant, VERPE (rate 250, 20 DAA) | damage to plant, BEAVA (rate 500, 20 DAA) | damage to plant, BROTE (rate 500, 20 DAA) | damage to plant, BRSNN (rate 500, 20 DAA) | damage to plant, CHEAL (rate 500, 20 DAA) | damage to plant, GALAP (rate 500, 20 DAA) | damage to plant, KCHSC (rate 500, 20 DAA) | damage to plant, POLCO (rate 500, 20 DAA) | damage to plant, SINAR (rate 500, 20 DAA)
20: damage to plant, POAAN (rate 30, 20 DAA) | damage to plant, POAAN (rate 60, 20 DAA) | damage to plant, ALOMY (rate 500, 20 DAA) | damage to plant, HORVW (rate 500, 20 DAA)
30: damage to plant, AVEFA (rate 500, 20 DAA) | damage to plant, STEME (rate 500, 20 DAA)
50: damage to plant, POAAN (rate 250, 20 DAA) | damage to plant, LOLPE (rate 500, 20 DAA)
40: damage to plant, POAAN (rate 130, 20 DAA)

From patent US20220281848A1, “PYRAZOLE-SUBSTITUTED PYRROLIDINONES AS HERBICIDES” (FMC Corporation, priority 2019, published 2022)
